Results published in patent US12441733B2, “Substituted 2,4-dioxotetrahydropyrimidines as intermediates in the synthesis of bruton's tyrosine kinase inhibitors” (Novartis AG, priority 2018, dated 2025).

Biological target: T1, IKZF3-GFP (Homo sapiens, UniProt Q96SW2+Q9UKT9)
T1 construct: expressed in transfected cells; host or cells: HEK293A (Invitrogen R70507), lentiviral transduction with pLenti6-IKZF3-GFP-Ires-RFP, blasticidin selection
Experiment: IKZF3-GFP protein abundance flow cytometry assay in HEK293A cells
Type: cell-based
Conditions: HEK293A IKZF3-GFP-iresRFP cells, 24 h; for DC50: GFP signal by flow cytometry; for IKZF3 deg Amax: % protein remaining at maximum degradation
Experimental: BTK-GFP and IKZF3-GFP protein abundance flow cytometry assay in HEK293A cells:
Degradation of BTK or IKZF3 was measured in HEK293A cells (Invitrogen R70507) expressing either BTK-GFP and RFP or IKZF3-GFP and RFP from a stably integrated bicistronic BTK-GFP-iresRFP or IKZF3-GFP-iresRFP construct, respectively. Reduction of the GFP signal measured by flow cytometry served as readout for BTK or IKZF3 degradation after degrader treatment.
By analogy the bicistronic pLenti6-IKZF3-GFP-iresRFP was engineered by gateway cloning of IKZF3 from a pENTR221-IKZF3(STOP-Leu) construct into the previously described pLenti6-DEST-GFP-Ires-RFP vector using the LR Clonase kit (Invitrogen 11791-019) according to the manufacturer's manual. All vectors described have been sequenced for verification.
ii) Engineering of Stably Expressing 293A BTK-GFP-Ires-RFP and IKZF3-GFP-Ires-RFP Sensor Cells
293A BTK-GFP-Ires-RFP and IKZF3-GFP-ires-RFP sensor cells were generated by lentiviral vector transduction using the pLenti6-BTK-GFP-Ires-RFP or pLenti6-IKZF3-GFP-Ires-RFP sensor construct described before. Lentiviral particles were produced in HEK293FT cells (Invitrogen R70007) by co-transfection of 500 ng pLenti6-BTK-GFP-ires-RFP or pLenti6-IKZF3-GFP-Ires-RFP, 500 ng delta8.71 and 200 ng pVSVG diluted in 100 μl OptiMEM serum free medium (Invitrogen #11058-021) that was mixed after 5 min preincubation with 3 μl of Lipofectamine2000 (Invitrogen #11668-019) in 97 μl OptiMEM serum free medium. The mix was incubated for another 20 min at RT and then added on 1 ml of a freshly prepared suspension of HEK293FT cells in a well of a 6-well plate (concentration 1.2×10^6 cells/ml). 1 day after transfection, the medium was replaced with 1.5 ml of complete growth medium (DMEM high Glucose+10% FCS+1% L-Glutamine+1% NEAA+1% NaPyr.). 48 h post transfection supernatant containing viral transducing particles was collected and frozen at −80° C.
Two days before transduction with viral particles 1×10^5 HEK293A cells (Invitrogen R70507) were seeded in 2 ml growth medium in a well of a 6-well plate. Infection was performed with 90 μl of collected supernatant containing viral transducing particles in 1 ml medium including 8 μg/ml polybrene. 24 h post infection, stably transfected cells were selected with blasticidin at a concentration of 8 μg/ml.
Iii) Quantitative BTK-GFP and IKZF3-GFP Abundance Measurements
Stable HEK293A-BTK-GFP-iresRFP cells were maintained in complete growth medium (DMEM high Glucose+10% FCS+1% L-Glutamine+1% NEAA+1% NaPyr.) with passaging performed twice per week. On Day 0, HEK293A-BTK-GFP-iresRFP or HEK293A-IKZF3-GFP-iresRFP and HEK293A-iresRFP cells were seeded at 10,000 cells/well in a 96-well microtiter plate in 260 μl complete medium. On Day 1, cells were treated in duplicate with 10-point 1:3 dilution series of compound using the HP D300 Digital Dispenser (Tecan). DMSO concentrations were normalized across the plate to 0.1%. On Day 2, after 24 h of incubation at 37° C., treatment media was discarded, cells rinsed with 100 μl/well PBS and then detached using 40 μl trypsin/well for 5 min. Trypsin was neutralized with 100 μl/well PBS+20% FCS). Flow cytometry was performed on the samples using the BD FACS CANTO II (Becton Dickinson). Cell identification was then performed using forward (FSC) vs. side scatter (SSC) plots. […] Median GFP values for 5,000 single cells are used to determine BTK levels. Median GFP values from HEK293A-iresRFP are used as a background signal and thus defining 0% BTK signal. Median GFP values from DMSO treated HEK293A-BTK-GFP-iresRFP or HEK293A-IKZF3-GFP-iresRFP are used to define 100% BTK signal for subsequent DC50 curves (concentration at 50% BTK degradation).

T1 sequence (Q9UKT9 whole entry): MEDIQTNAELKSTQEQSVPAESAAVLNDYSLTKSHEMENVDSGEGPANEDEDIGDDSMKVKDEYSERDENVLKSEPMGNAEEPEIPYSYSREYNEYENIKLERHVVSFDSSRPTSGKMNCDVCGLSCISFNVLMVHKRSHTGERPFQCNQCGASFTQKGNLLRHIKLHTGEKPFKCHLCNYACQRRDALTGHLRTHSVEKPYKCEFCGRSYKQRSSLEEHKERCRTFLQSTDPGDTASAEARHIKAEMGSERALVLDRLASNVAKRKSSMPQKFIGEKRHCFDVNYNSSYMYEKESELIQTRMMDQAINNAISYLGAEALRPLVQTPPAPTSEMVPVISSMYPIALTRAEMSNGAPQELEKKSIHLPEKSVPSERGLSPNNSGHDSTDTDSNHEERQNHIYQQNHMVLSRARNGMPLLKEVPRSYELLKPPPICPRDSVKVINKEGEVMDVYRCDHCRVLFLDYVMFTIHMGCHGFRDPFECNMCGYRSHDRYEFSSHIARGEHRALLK
T1 sequence (Q96SW2 whole entry): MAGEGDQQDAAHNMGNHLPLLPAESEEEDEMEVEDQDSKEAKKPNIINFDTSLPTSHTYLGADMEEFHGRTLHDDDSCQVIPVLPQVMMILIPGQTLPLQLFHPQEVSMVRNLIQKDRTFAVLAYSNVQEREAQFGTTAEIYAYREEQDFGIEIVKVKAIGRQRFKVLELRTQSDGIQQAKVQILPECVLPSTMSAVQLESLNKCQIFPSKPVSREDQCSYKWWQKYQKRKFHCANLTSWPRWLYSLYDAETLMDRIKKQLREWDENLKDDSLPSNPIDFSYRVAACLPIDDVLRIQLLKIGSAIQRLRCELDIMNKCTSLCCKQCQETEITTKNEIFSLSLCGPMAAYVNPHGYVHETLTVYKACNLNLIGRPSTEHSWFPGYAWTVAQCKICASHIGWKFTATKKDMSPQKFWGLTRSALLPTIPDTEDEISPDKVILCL
T1 sequence (Q16531 whole entry partner): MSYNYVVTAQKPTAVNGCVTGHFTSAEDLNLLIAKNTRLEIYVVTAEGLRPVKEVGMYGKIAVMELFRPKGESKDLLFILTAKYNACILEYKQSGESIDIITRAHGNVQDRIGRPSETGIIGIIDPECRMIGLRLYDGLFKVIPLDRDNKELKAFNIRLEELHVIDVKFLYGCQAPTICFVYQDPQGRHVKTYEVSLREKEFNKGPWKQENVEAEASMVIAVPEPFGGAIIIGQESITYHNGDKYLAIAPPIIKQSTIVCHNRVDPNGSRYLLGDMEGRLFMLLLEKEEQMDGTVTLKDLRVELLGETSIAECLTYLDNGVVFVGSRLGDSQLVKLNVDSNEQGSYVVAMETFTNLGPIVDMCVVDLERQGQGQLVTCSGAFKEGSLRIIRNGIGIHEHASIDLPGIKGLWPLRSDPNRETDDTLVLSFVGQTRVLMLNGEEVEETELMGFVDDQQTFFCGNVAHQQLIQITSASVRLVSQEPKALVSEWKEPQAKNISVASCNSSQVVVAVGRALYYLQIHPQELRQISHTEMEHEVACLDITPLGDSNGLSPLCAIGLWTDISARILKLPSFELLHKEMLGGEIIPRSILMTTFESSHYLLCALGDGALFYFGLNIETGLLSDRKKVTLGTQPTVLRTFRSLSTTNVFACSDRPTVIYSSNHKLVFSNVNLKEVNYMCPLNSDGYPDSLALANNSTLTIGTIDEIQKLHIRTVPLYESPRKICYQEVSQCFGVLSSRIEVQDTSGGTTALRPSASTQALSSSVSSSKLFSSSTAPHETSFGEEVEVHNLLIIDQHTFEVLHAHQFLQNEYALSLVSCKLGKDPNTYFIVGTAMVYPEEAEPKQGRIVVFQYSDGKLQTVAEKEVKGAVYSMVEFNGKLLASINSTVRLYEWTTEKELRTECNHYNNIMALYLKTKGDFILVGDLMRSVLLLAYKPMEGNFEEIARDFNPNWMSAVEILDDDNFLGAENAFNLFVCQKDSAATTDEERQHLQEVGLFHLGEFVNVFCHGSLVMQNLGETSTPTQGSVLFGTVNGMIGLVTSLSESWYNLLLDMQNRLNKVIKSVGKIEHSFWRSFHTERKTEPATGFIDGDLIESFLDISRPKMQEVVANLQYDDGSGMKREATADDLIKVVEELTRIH

SMILES	DC50 [µM]	IKZF3 deg Amax [%]
Cc1c(NC(=O)c2ccc(C(C)(C)O)cc2F)cc(F)cc1-c1ncnc2[nH]c(-c3ccc(COC4CCN(CCC5CCN(C(=O)c6ccc(F)c(N7CCC(=O)NC7=O)c6)CC5)CC4)cc3)cc12 [Compound 6, N-(3-(6-(4-(((1-(2(1-(3-(2,4-dioxotetrahydropyrimidin-1(2H)-yl)-4-fluorobenzoyl)piperidin-4-yl)ethyl)piperidin-4-yl)oxyl)methyl)phenyl)-7H-pyrrolo[2,3-d]pyrimidin-4-yl)-5-fluoro-2-methylphenyl)-2-fluoro-4-(2-hydroxypropan-2-yl)benzamide]	> 10	100.8
COc1ccc(C(=O)NCCN2CCC3(CC2)CCN(Cc2ccc(-c4cc5c(-c6cc(F)cc(NC(=O)c7ccc(C(C)(C)O)cc7F)c6C)ncnc5[nH]4)cc2)CC3)cc1N1CCC(=O)NC1=O [Compound 44, N-(3-(6-(4-((9-(2-(3-(2,4-dioxotetrahydropyrimidin-1(2H)-yl)-4-methoxybenzamido)ethyl)-3,9-diazaspiro[5.5]undecan-3-yl)methyl)phenyl)-7H-pyrrolo[2,3-d]pyrimidin-4-yl)-5-fluoro-2-methylphenyl)-2-fluoro-4-(2-hydroxypropan-2-yl)benzamide]	> 3.3	99.7
COc1ccc(C(=O)N2CCC3(CCN(CCc4ccc(-c5cc6c(-c7cc(F)cc(NC(=O)c8ccc(C(C)(C)O)cc8F)c7C)ncnc6[nH]5)cc4)CC3)CC2)cc1N1CCC(=O)NC1=O [Compound 31, N-(3-(6-(4-(2-(9-(3-(2,4-Dioxotetrahydropyrimidin-1(2H)-yl)-4-methoxybenzoyl)-3,9-diazaspiro[5.5]undecan-3-yl)ethyl)phenyl)-7H-pyrrolo[2,3-d]pyrimidin-4-yl)-5-fluoro-2-methylphenyl)-2-fluoro-4-(2-hydroxypropan-2-yl)benzamide]	> 5.5	99.8
COc1ccc(C(=O)N2CCC(OC3CCN(Cc4ccc(-c5cc6c(-c7cc(F)cc(NC(=O)c8ccc(C(C)(C)O)cc8F)c7C)ncnc6[nH]5)cc4)CC3)CC2)cc1N1CCC(=O)NC1=O [Compound 8, N-(3-(6-(4-((4-((1-(3-(2,4-dioxotetrahydropyrimidin-1(2H)-yl)-4-methoxybenzoyl)piperidin-4-yl)oxyl)piperidin-1-yl)methyl)phenyl)-7H-pyrrolo[2,3-d]pyrimidin-4-yl)-5-fluoro-2-methylphenyl)-2-fluoro-4-(2-hydroxypropan-2-yl)benzamide]	> 2.6	103.3
CCOc1ccc(C(=O)N2CCC3(CCN(Cc4ccc(-c5cc6c(-c7cc(F)cc(NC(=O)c8ccc(C(C)(C)O)cc8F)c7C)ncnc6[nH]5)cc4)CC3)CC2)cc1N1CCC(=O)NC1=O [Compound 4, N-(3-(6-(4-((9-(3-(2,4-Dioxotetrahydropyrimidin-1(2H)-yl)-4-ethoxybenzoyl)-3,9-diazaspiro[5.5]undecan-3-yl)methyl)phenyl)-7H-pyrrolo[2,3-d]pyrimidin-4-yl)-5-fluoro-2-methylphenyl)-2-fluoro-4-(2-hydroxypropan-2-yl)benzamide]	> 1.1	101.3
COc1ccc(C(=O)NCCN2CCOC3(CCN(Cc4ccc(-c5cc6c(-c7cc(F)cc(NC(=O)c8ccc(C(C)(C)O)cc8F)c7C)ncnc6[nH]5)cc4)CC3)C2)cc1N1CCC(=O)NC1=O [Compound 39, N-(3-(6-(4-((4-(2-(3-(2,4-dioxotetrahydropyrimidin-1(2H)-yl)-4-methoxybenzamido)ethyl)-1-oxa-4,9-diazaspiro[5.5]undecan-9-yl)methyl)phenyl)-7H-pyrrolo[2,3-d]pyrimidin-4-yl)-5-fluoro-2-methylphenyl)-2-fluoro-4-(2-hydroxypropan-2-yl)benzamide]	> 10	94.5
Cc1c(NC(=O)c2ccc(C(C)(C)O)cc2F)cc(F)cc1-c1ncnc2[nH]c(-c3ccc(CCN4CCC5(CC4)CCN(C(=O)c4cccc(N6CCC(=O)NC6=O)c4)CC5)cc3)cc12 [Compound 12, N-(3-(6-(4-(2-(9-(3-(2,4-Dioxotetrahydropyrimidin-1(2H)-yl)benzoyl)-3,9-diazaspiro[5,5]undecan-3-yl)ethyl)phenyl)-7H-pyrrolo[2,3-d]pyrimidin-4-yl)-5-fluoro-2-methylphenyl)-2-fluoro-4-(2-hydroxypropan-2-yl)benzamide]	> 1.1	100.4

Next, values leading:

DC50 [µM]	IKZF3 deg Amax [%]	SMILES
> 10	99.7	COc1ccc(C(=O)N2CCN(C(=O)N3CCN(Cc4ccc(-c5cc6c(-c7cc(F)cc(NC(=O)c8ccc(C(C)(C)O)cc8F)c7C)ncnc6[nH]5)cc4)CC3)CC2)cc1N1CCC(=O)NC1=O [Compound 22, N-(3-(6-(4-((4-(4-(3-(2,4-Dioxotetrahydropyrimidin-1(2H)-yl)-4-methoxybenzoyl)piperazine-1-carbonyl)piperazin-1-yl)methyl)phenyl)-7H-pyrrolo[2,3-d]pyrimidin-4-yl)-5-fluoro-2-methylphenyl)-2-fluoro-4-(2-hydroxypropan-2-yl)benzamide]
> 0.37	103.3	Cc1ccc(C(=O)N2CCC3(CCN(CCc4ccc(-c5cc6c(-c7cc(F)cc(NC(=O)c8ccc(C(C)(C)O)cc8F)c7C)ncnc6[nH]5)cc4)CC3)CC2)cc1N1CCC(=O)NC1=O [Compound 5, N-(3-(6-(4-(2-(9-(3-(2,4-Dioxotetrahydropyrimidin-1(2H)-yl)-4-methylbenzoyl)-3,9-diazaspiro[5.5]undecan-3-yl)ethyl)phenyl)-7H-pyrrolo[2,3-d]pyrimidin-4-yl)-5-fluoro-2-methylphenyl)-2-fluoro-4-(2-hydroxypropan-2-yl)benzamide]
> 3.3	98.6	Cc1cc(F)c(C(=O)NCCCCCNCc2ccc(-c3cc4c(-c5cc(F)cc(NC(=O)c6ccc(C(C)(C)O)cc6F)c5C)ncnc4[nH]3)cc2)cc1N1CCC(=O)NC1=O [Compound 29, 5-(2,4-Dioxotetrahydropyrimidin-1(2H)-yl)-2-fluoro-N—(S-((4-(4-(5-fluoro-3-(2-fluoro-4-(2-hydroxypropan-2-yl)benzamido)-2-methylphenyl)-7H-pyrrolo[2,3-d]pyrimidin-6-yl)benzyl)amino)pentyl)-4-methylbenzamide]
> 3.3	101.1	Cc1ccc(C(=O)N(C)CCCCCNCc2ccc(-c3cc4c(-c5cc(F)cc(NC(=O)c6ccc(C(C)(C)O)cc6F)c5C)ncnc4[nH]3)cc2)cc1N1CCC(=O)NC1=O [Compound 30, 3-(2,4-Dioxotetrahydropyrimidin-1(2H)-yl)-N-(5-((4-(4-(5-fluoro-3-(2-fluoro-4-(2-hydroxypropan-2-yl)benzamido)-2-methylphenyl)-7H-pyrrolo[2,3-d]pyrimidin-6-yl)benzyl)amino)pentyl)-N,4-dimethylbenzamide]
> 1.1	99.7	Cc1c(NC(=O)c2ccc(C(C)(C)O)cc2F)cc(F)cc1-c1ncnc2[nH]c(-c3ccc(CCN4CCC5(CC4)CCN(C(=O)c4ccc(F)c(N6CCC(=O)NC6=O)c4)CC5)cc3)cc12 [Compound 47, N-(3-(6-(4-(2-(9-(3-(2,4-dioxotetrahydropyrimidin-1(2H)-yl)-4-fluorobenzoyl)-3,9-diazaspiro[5.5]undecan-3-yl)ethyl)phenyl)-7H-pyrrolo[2,3-d]pyrimidin-4-yl)-5-fluoro-2-methylphenyl)-2-fluoro-4-(2-hydroxypropan-2-yl)benzamide]
